In ChEMBL document CHEMBL1201862, “PubChem BioAssay data set” (2004):
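These data come from cells grown in 96-well plates and exposed to compound for 48 hours at five concentrations. At the GI50, growth is halved.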 The source made the active and inactive calls. Cut-off read from the data, not from the text of the source: active = GI50 up to about 1.1 µM and inactive = higher.

Tests used:
Assay in all cases: DTP human tumour cell line panel, 48 h
CCRF-CEM = tested on: CCRF-CEM
DMS-114 = tested on: DMS-114
EKVX = tested on: EKVX
HCT-15 = tested on: HCT-15
KM12 = tested on: KM12
LOX IMVI = tested on: LOX IMVI
M14 = tested on: M14
MOLT-4 = tested on: MOLT-4
OVCAR-8 = tested on: OVCAR-8
SF-268 = tested on: SF-268
SK-MEL-28 = tested on: SK-MEL-28
SN12C = tested on: SN12C
A498 = tested on: A498
BT-549 = tested on: BT-549
DU-145 = tested on: DU-145
Hs-578T = tested on: Hs-578T
MCF7 = tested on: MCF7
MDA-MB-435 = tested on: MDA-MB-435
SK-OV-3 = tested on: SK-OV-3
U-251 = tested on: U-251

Structure (SMILES) | GI50 (CCRF-CEM) | GI50 (DMS-114) | GI50 (EKVX) | GI50 (HCT-15) [µM] | GI50 (KM12) | GI50 (LOX IMVI) | GI50 (M14) | GI50 (MOLT-4) | GI50 (OVCAR-8) | GI50 (SF-268) | GI50 (SK-MEL-28) | GI50 (SN12C) | GI50 (A498) | GI50 (BT-549) | GI50 (DU-145) | GI50 (Hs-578T) | GI50 (MCF7) | GI50 (MDA-MB-435) | GI50 (SK-OV-3) | GI50 (U-251)
CCCCCC(=O)c1ccc2[nH]c3c(C)cc([N+](=O)[O-])c(C)c3c2c1 | 91.2 µM (inactive) | > 100 µM (inactive) | > 100 µM (inactive) | > 100 | > 100 µM (inactive) | > 100 µM (inactive) | 70 µM (inactive) | > 100 µM (inactive) | 75.5 µM (inactive) | > 100 µM (inactive) | > 100 µM (inactive) | > 100 µM (inactive) | – | – | – | – | – | – | – | –
COC(=O)C1=C(OC(=O)/C(=C/c2ccccc2)c2ccc(Cl)cc2Cl)C(C(=O)OC)[C@@]2(O)[C@@H](C(=O)OC)[C@H](C)C[C@@H]1[C@@H]2C(=O)OC (some centres not stated) | > 100 µM (inactive) | – | > 100 µM (inactive) | > 100 | > 100 µM (inactive) | > 100 µM (inactive) | > 100 µM (inactive) | > 100 µM (inactive) | > 100 µM (inactive) | > 100 µM (inactive) | > 100 µM (inactive) | > 100 µM (inactive) | > 100 µM (inactive) | > 100 µM (inactive) | > 100 µM (inactive) | > 100 µM (inactive) | > 100 µM (inactive) | > 100 µM (inactive) | > 100 µM (inactive) | > 100 µM (inactive)
N#Cc1c(NC(=O)C(F)(F)F)sc2c3c(=O)c4ccccc4c(=O)c=3oc3ccccc3c12 | 4.24 µM (inactive) | – | 24.6 µM (inactive) | 13.1 | 9.84 µM (inactive) | 13 µM (inactive) | 21.7 µM (inactive) | 11.7 µM (inactive) | 15.7 µM (inactive) | 7.98 µM (inactive) | 20.4 µM (inactive) | 21.9 µM (inactive) | 33.3 µM (inactive) | 19.6 µM (inactive) | 15.3 µM (inactive) | 2.49 µM (inactive) | 20.2 µM (inactive) | 17.1 µM (inactive) | 29.4 µM (inactive) | 14.7 µM (inactive)
O=C1c2c(O)ccc(O)c2C(=O)c2c(NCCNC(=O)C(O)C(O)C(O)C(O)CO)ccc(NCCNC(=O)C(O)C(O)C(O)C(O)CO)c21 (configuration not stated) | 0.0316 µM (active) | – | 0.165 µM (active) | 0.0138 | 0.0277 µM (active) | 0.0134 µM (active) | < 0.0195 µM (active) | < 0.01 µM (active) | < 0.0231 µM (active) | 0.0241 µM (active) | 0.211 µM (active) | < 0.01 µM (active) | 0.149 µM (active) | 0.121 µM (active) | < 0.01 µM (active) | 0.213 µM (active) | < 0.01 µM (active) | 0.355 µM (active) | < 0.0233 µM (active) | 0.0109 µM (active)
CC1=C/C(O)CC(=O)Cc2nc(co2)C(=O)N2CCC=C2C(=O)OC(C(C)C)C(C)/C=C\C(=O)NC/C=C\1 (configuration not stated) | 21.6 µM (inactive) | – | 18.8 µM (inactive) | 19.8 | 12.4 µM (inactive) | 17.2 µM (inactive) | 17.3 µM (inactive) | 16.6 µM (inactive) | 15.3 µM (inactive) | 16 µM (inactive) | 19.6 µM (inactive) | 14.9 µM (inactive) | 23.6 µM (inactive) | 20.5 µM (inactive) | 27.1 µM (inactive) | 20 µM (inactive) | 19.1 µM (inactive) | 24.8 µM (inactive) | 53.1 µM (inactive) | 35.8 µM (inactive)
CSc1nc(C)c(CCOC(C)=O)c(Cl)n1 | > 100 µM (inactive) | – | > 100 µM (inactive) | > 100 | > 100 µM (inactive) | > 100 µM (inactive) | > 100 µM (inactive) | > 100 µM (inactive) | > 100 µM (inactive) | > 100 µM (inactive) | > 100 µM (inactive) | > 100 µM (inactive) | 48 µM (inactive) | > 100 µM (inactive) | > 100 µM (inactive) | > 100 µM (inactive) | > 100 µM (inactive) | > 100 µM (inactive) | > 100 µM (inactive) | > 100 µM (inactive)
Cc1nc2sc3cccc(Cl)c3n2c(=O)c1/N=N/c1ccc(Cl)cc1 | > 100 µM (inactive) | – | 38.5 µM (inactive) | > 100 | > 100 µM (inactive) | 58.1 µM (inactive) | > 100 µM (inactive) | 44.9 µM (inactive) | > 100 µM (inactive) | 58.9 µM (inactive) | > 100 µM (inactive) | > 100 µM (inactive) | 17.4 µM (inactive) | 93.8 µM (inactive) | > 100 µM (inactive) | 45.9 µM (inactive) | 87.5 µM (inactive) | > 100 µM (inactive) | > 100 µM (inactive) | > 100 µM (inactive)
COc1cccc(C2c3cc4c(cc3OC(C)(O)C2C)OCO4)c1O (configuration not stated) | 4.45 µM (inactive) | – | 13.6 µM (inactive) | 3.64 | 3.33 µM (inactive) | 5.12 µM (inactive) | 3.48 µM (inactive) | 5.25 µM (inactive) | 4.94 µM (inactive) | 8.79 µM (inactive) | 10.5 µM (inactive) | 5.27 µM (inactive) | 3.24 µM (inactive) | 9.71 µM (inactive) | 4.48 µM (inactive) | 2.68 µM (inactive) | 4.25 µM (inactive) | 1.42 µM (inactive) | 3.57 µM (inactive) | 3.83 µM (inactive)
Cc1ccc(C(=O)/C=C2/Nc3ccccc3NC2=O)c(C)c1 | 62.5 µM (inactive) | – | 8.77 µM (inactive) | 64.3 | 20.8 µM (inactive) | 22.6 µM (inactive) | 49.2 µM (inactive) | 45.5 µM (inactive) | 5.28 µM (inactive) | 6.95 µM (inactive) | 14.7 µM (inactive) | 16 µM (inactive) | 0.228 µM (active) | 35.4 µM (inactive) | 30.1 µM (inactive) | 16.2 µM (inactive) | 13.3 µM (inactive) | 30.8 µM (inactive) | 7.05 µM (inactive) | 11.2 µM (inactive)
COc1ccc(NC(=S)N/N=C/c2cccc(C)n2)cc1 | 2.82 µM (inactive) | – | 5.11 µM (inactive) | 2.31 | 3.98 µM (inactive) | 3.65 µM (inactive) | 2.4 µM (inactive) | 3.07 µM (inactive) | 3.74 µM (inactive) | 3.94 µM (inactive) | 5.68 µM (inactive) | 5.79 µM (inactive) | 18.8 µM (inactive) | 10.7 µM (inactive) | 5.56 µM (inactive) | 24.7 µM (inactive) | 3.59 µM (inactive) | 1.04 µM (active) | 4.61 µM (inactive) | 4.09 µM (inactive)
COc1ccccc1/N=N/C(=N/NC(=O)c1ccc(C)cc1)c1ccc(N(CCC#N)CCC#N)cc1OC | 18.6 µM (inactive) | – | 26.4 µM (inactive) | 42.3 | 26.8 µM (inactive) | 33.4 µM (inactive) | 29.4 µM (inactive) | 19.1 µM (inactive) | 32.5 µM (inactive) | 30.5 µM (inactive) | 36 µM (inactive) | 28.3 µM (inactive) | 22.2 µM (inactive) | 32.3 µM (inactive) | 40.8 µM (inactive) | 56.4 µM (inactive) | 13.4 µM (inactive) | 29.1 µM (inactive) | 37.1 µM (inactive) | 32.5 µM (inactive)
